Tests used:
[1] = Permeability assay (PAMPA); assay type: in vitro ADME; conditions: pH 7.4, 25 °C, <10 low, >10 high permeability
Protocol: GCN2 compound permeability was determined by PAMPA and was performed by Pharmaron, Inc. (Beijing, China). All compounds and control stock solutions were prepared in DMSO at a concentration of 10 mM. Testosterone and methotrexate were used as control compounds. Compound stock solutions were diluted with PBS (pH 7.4) to a final concentration of 10 μM. A 1.8% solution (w/v) of lecithin in dodecane was prepared and sonicated to ensure a complete dissolution. 5 μL of the lecithin/dodecane mixture were pipetted into each acceptor plate well (top compartment). Immediately after the application of the artificial membrane (within 10 min), 300 μL of PBS (pH 7.4) solution were added to each well of the acceptor plate. 300 μL of drug-containing solutions were added to each well of the donor plate (bottom compartment) in triplicate. The plate lid was replaced and incubated at 25 °C, 60 rpm for 16 h. After incubation, aliquots of 50 μL from each well of acceptor and donor plate were transferred into a 96-well plate and 200 μL of methanol (containing IS: 100 nM Alprazolam, 200 nM Labetalol and 2 μM Ketoprofen) was added to each well. The plate was vortexed at 750 rpm for 100 s. Samples were centrifuged at 3220g for 20 min. The compound concentrations were determined by LC/MS/MS. The effective permeability (Pe), in units of centimeter per second were calculated using the following equation: logPe=logC×−ln1−drugacceptor/drugequilibrium

HRI = target: T1, HRI (Homo sapiens, UniProt Q9BQI3); experiment: radiometric HotSpot kinase assay; assay type: biochemical; conditions: 10 μM compound, 10 μM ATP; read-out: % Enzyme inhibition at 10 μM, HRI
T1 construct: purchased Reaction Biology Corporation (Malvern, PA)
Protocol: (§1) Compounds 1–9 were screened in a radiometric […] kinase assay against human GCN2 and other kinases involved in the UPR and ISR pathways (Table 1). […] The most soluble of the potent tool compounds (1 and 2) were selected for in vitro cell-based assays where the phosphorylation of eIF2α (p-eIF2α) was used as a readout for GCN2 inhibition.
(§2) In vitro compound profiling for recombinant GCN2, PERK, HRI, PKR, or IRE1 kinases were performed at Reaction Biology Corporation (Malvern, PA) using the HotSpot kinase assay. Briefly, all compounds provided for testing were dissolved in 10 mM DMSO stock solutions. Serial dilutions were conducted by epMotion 5070 in DMSO. Specific kinase/substrate mixtures and required cofactors were prepared in reaction buffer (20 mM Hepes (pH 7.5), 10 mM MgCl2, 1 mM EGTA, 0.02% Brij35, 0.02 mg/ml BSA, 0.1 mM Na3VO4, 2 mM DTT, 1% DMSO). Compounds were added to the kinase reaction mixture by Acoustic technology (Echo550; nanoliter range) and incubated for 20 min at room temperature. The kinase reaction was initiated by adding ^33P ATP to a final concentration of 10 μM for single point kinase activity reading or to the ATP Km of GCN2 for IC50 readings. The reaction was incubated or 2 h at room temperature and kinase activity was detected by filter-binding method. IC50 values and curves were generated with GraphPad Prism 7 (GraphPad software).

IRE1 = target: T2, IRE1 (Homo sapiens, UniProt O75460); experiment: radiometric HotSpot kinase assay; assay type: biochemical; conditions: 10 μM compound, 10 μM ATP; read-out: % Enzyme inhibition at 10 μM, IRE1
T2 construct: purchased Reaction Biology Corporation (Malvern, PA)
Protocol: as §1, §2

PKR = target: T3, PKR (Homo sapiens, UniProt P19525); experiment: radiometric HotSpot kinase assay; assay type: biochemical; conditions: for inhibition at 10 µM: 10 μM compound, 10 μM ATP, read-out: % Enzyme inhibition at 10 μM, PKR; for IC50: means of two independent experiments
T3 construct: purchased Reaction Biology Corporation (Malvern, PA)
Protocol: as §1, §2

4E-BP mRNA = experiment: qRT-PCR of 4E-BP mRNA in Drosophila S2 cells; assay type: cell-based; conditions: amino acid deprived, 10 μM, 6 h, vs DMSO control
Description: It is known that under normal nutrient conditions the cap-dependent translational inhibitor 4E-BP is not expressed. However stress such as nutrient deprivation is known to trigger the transcriptional induction of 4E-BP. It has recently been shown that GCN2 and its downstream transcription factor, ATF4, mediate 4E-BP induction under amino acid deprivation in Drosophila, S2 cells. To further investigate the downstream effects of 1 and 2 on the amino acid deprivation GCN2 − ATF4 − 4E-BP pathway, the levels of 4E-BP mRNA transcript were monitored. We performed qRT-PCR on Drosophila S2 cells.
Drosophila S2 cell lines were cultured at 25 °C in Schneider's medium (Life Technologies, 21,720,024) and supplemented with 1% penicillin-streptomycin (Life Technologies, 15,140,122). For amino acid deprivation experiments, Schneider's medium lacking amino acids (USBiological Life Sciences, S0100-03) was used. Cells were treated for 6 h with 10 μM inhibitor concatenation or DMSO.
Total RNA was extracted with TRIzol Reagent (Invitrogen, USA). For cDNA synthesis, 200 ng of RNA was transcribed using SuperScript First-Strand Synthesis Kit (Invitrogen, USA). PCR amplification was performed for 25 cycles using taq polymerase (Roche) according to manufacturer's protocol. […] Results were expressed as the relative expression of mRNA levels detected in control samples and were calculated using the ΔΔCt method.

NCI-H23 = experiment: NCI-60 one-dose screen; assay type: cell-based; conditions: Homo sapiens; Non-Small Cell Lung NCI-H23, 10 μM, 48 h; read-out: Percent growth inhibition
Protocol: (§3) Compounds 1 and 2 were submitted to the National Cancer Institute NCI-60 Tumor Cell Screening Program (NCI number 800,700 and 800,701, respectively) for evaluation against the 60 cell line NCI panel at a single dose of 10 μM. […] Leukemia and breast cancer cell lines comprised the only cancer groups that were uniformly sensitive to both 1 and 2, with the greatest sensitivity seen in the leukemia SR cell line.
(§4) Compounds 1 and 2 were submitted to the NCI for growth inhibition screening against its panel of 60 cancer cell lines. The NCI screening protocol has extensively been described [[53], [54], [55], [56]]. Briefly, cancerous cell lines were grown in RPMI 1640 medium containing 5% fetal bovine serum and 2 mM L-glutamine. Depending on the doubling time of each cell line, 5000–40,000 cells were seeded in 96-well plates for 24 h. Cells were then treated with compounds 1 or 2 at a concentration of 10 μM and incubated for 48 h at 37 °C in a humidified atmosphere containing 5% CO2. The cells were then fixed and stained with sulforhodamine B (SRB) to determine their viability. The data were analyzed using a program called COMPARE to determine the percent growth inhibition of each compound.

MOLT-4 = experiment: NCI-60 one-dose screen; assay type: cell-based; conditions: Homo sapiens; Leukemia MOLT-4, 10 μM, 48 h; read-out: Percent growth inhibition
Protocol: as §3, §4

PC-3 = experiment: NCI-60 one-dose screen; assay type: cell-based; conditions: Homo sapiens; Prostate PC-3, 10 μM, 48 h; read-out: Percent growth inhibition
Protocol: as §3, §4

T3 sequence (P19525 whole entry): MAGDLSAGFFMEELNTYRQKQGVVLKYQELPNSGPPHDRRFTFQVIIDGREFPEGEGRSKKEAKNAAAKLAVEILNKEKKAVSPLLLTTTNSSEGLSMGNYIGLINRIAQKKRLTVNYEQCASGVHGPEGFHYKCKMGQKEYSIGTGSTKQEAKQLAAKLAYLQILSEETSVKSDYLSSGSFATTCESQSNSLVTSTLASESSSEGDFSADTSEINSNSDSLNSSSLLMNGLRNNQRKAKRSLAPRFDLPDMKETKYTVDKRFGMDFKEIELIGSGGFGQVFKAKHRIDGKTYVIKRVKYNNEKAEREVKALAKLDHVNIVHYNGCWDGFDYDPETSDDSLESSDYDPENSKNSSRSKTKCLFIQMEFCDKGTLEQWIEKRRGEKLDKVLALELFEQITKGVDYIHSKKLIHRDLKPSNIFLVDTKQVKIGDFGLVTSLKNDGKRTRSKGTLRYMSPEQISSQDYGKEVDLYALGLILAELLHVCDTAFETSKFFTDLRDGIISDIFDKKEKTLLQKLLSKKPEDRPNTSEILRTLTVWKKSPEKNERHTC
T1 sequence (Q9BQI3 whole entry): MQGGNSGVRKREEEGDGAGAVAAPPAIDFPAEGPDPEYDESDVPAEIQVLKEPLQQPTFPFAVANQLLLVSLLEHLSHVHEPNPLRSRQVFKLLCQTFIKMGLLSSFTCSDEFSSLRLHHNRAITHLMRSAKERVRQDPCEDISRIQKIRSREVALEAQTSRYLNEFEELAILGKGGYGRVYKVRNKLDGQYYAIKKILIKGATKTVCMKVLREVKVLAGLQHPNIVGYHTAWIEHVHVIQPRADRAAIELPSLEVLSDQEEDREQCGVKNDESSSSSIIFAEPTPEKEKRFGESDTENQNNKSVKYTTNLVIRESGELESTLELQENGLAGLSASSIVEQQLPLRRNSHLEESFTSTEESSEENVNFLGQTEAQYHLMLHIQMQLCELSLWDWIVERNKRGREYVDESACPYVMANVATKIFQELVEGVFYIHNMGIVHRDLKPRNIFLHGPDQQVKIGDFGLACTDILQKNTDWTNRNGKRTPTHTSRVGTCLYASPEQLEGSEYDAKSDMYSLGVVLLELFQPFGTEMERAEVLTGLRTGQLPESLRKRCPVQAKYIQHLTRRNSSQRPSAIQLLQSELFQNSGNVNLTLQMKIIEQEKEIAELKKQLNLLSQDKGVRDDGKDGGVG
T2 sequence (O75460 19-977): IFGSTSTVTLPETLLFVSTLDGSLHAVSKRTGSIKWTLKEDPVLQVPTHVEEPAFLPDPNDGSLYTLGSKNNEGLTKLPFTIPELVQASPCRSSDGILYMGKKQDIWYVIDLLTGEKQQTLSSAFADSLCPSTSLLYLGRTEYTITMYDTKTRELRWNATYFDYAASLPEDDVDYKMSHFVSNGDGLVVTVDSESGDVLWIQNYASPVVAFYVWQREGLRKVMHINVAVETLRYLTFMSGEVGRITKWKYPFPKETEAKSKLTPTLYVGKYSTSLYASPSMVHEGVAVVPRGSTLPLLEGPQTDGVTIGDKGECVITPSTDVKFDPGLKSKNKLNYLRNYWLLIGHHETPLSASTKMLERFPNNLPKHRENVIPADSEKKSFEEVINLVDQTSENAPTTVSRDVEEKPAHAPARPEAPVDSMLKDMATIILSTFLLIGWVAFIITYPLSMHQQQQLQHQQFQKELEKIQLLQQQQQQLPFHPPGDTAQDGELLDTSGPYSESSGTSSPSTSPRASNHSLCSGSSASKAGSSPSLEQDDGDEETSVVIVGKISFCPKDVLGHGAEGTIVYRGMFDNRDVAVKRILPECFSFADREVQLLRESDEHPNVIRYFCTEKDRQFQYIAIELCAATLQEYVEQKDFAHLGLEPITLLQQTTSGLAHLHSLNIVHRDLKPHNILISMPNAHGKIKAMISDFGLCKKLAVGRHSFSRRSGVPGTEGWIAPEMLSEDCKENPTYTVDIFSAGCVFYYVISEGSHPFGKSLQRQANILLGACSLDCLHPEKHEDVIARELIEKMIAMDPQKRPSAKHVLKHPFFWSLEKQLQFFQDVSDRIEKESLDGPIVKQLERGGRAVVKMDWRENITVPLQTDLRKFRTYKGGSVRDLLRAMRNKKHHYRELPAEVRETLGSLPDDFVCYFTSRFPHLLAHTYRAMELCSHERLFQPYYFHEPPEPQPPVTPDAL

SMILES	Papp at 16 h, 10 μM [1] [×10⁻⁶ cm/s]	inhibition at 10 µM (HRI) [%]	inhibition at 10 µM (IRE1) [%]	inhibition at 10 µM (PKR) [%]	IC50 (PKR) [nM]	relative 4E-BP mRNA levels (4E-BP mRNA)	inhibition at 10 µM (NCI-H23) [%]	inhibition at 10 µM (MOLT-4) [%]	inhibition at 10 µM (PC-3) [%]
CCn1cc(Nc2ncc3nnn(-c4ccc(C(=O)OC)cc4)c3n2)cn1 [Compound 1, Methyl 4-(5-((1-ethyl-1H-pyrazol-4-yl)amino)-3H-[1,2,3]triazolo[4,5-d]pyrimidin-3-yl)benzoate]	16	14	37	93	119	decreased	3.87	21.6	16.7
CCOc1ccc(-n2nnc3cnc(Nc4cnn(CC)c4)nc32)cc1 [Compound 2, 3-(4-Ethoxyphenyl)-N-(1-ethyl-1H-pyrazol-4-yl)-3H-[1,2,3]triazolo[4,5-d]pyrimidin-5-amine]	15.1	< 10	20	99	39.9	decreased	5.25	23.2	23.4

— paper PMC6197744, “Triazolo[4,5-d]pyrimidines as Validated General Control Nonderepressible 2 (GCN2) Protein Kinase Inhibitors Reduce Growth of Leukemia Cells” (Computational and Structural Biotechnology Journal, 2018)
